This note sets out measurements from US20260124213A1, “STAPHYLOCOCCUS AUREUS PBP4 INHIBITORS AND METHOD OF USE” (UNIVERSITY OF ROCHESTER, priority 2022, published 2026).

Assay [1] concerns MRSA strain ATCC BAA-1556. In words: Broth microdilution antibiotic potentiation. The assay is classed as cell-based, Staphylococcus aureus. To be noted: ATCC BAA-1556; for MIC: Staphylococcus aureus. On the procedure:
(§1) Broth Microdilution Method for Antibiotic Potentiation with MRSA Strains. Bacteria were cultured for 6 hours in CAMHB and sub-cultured to 5×10^5 CFU/mL in CAMHB. Subcultures were aliquoted (4 mL) into culture tubes and then inoculated with compound from 10 mM or 100 mM stock in DMSO to the desired concentration. […]. Bacteria treated with antibiotic alone served as the control. Samples from the secondary culture tubes were then aliquoted (200 μL) into the first row of wells of a 96-well microtiter plate. Rows 2-11 were filled (100 μL) with the remaining 4 mL of bacterial subculture containing the adjuvant. Row 12 was filled (100 μL) with uninoculated media. From row 1, 100 μL was transferred to row two and mixed 5-8 times before being transferred to row 3. This procedure was used to serial dilute the rest of the rows through 10. The microtiter plate was then covered in Press 'n Seal and incubated at 37° C.

For another assay, the system named is MRSA strain AH-1263. In words: Broth microdilution antibiotic potentiation. The assay is classed as cell-based, Staphylococcus aureus. To be noted: AH-1263; for MIC: Staphylococcus aureus, MRSA. On the procedure: as §1
The next assay has as its system CRB. As to the kind of experiment: MIC testing of antibiotics. Format: cell-based, Staphylococcus aureus. Conditions: Staphylococcus aureus, read-out: Minimum inhibitory concentration, CRB. On the procedure: (§2) Bacterial Strains and Chemicals. The bacterial strains used in these studies include: USA300, USA300Δpbp4, USA300Δpbp4 pPBP4, COL, COLn, COLnex, CRB, and CRBΔpbp4. S. aureus strain USA300 is a predominant cause of U.S. community-associated MRSA infections, whereas strain COL is a commonly studied hospital-associated MRSA strain. The S. aureus USA300 pbp4-null strain (USA300Δpbp4) and PBP4 complementation strain (USA300Δpbp4 pPBP4) have been previously described. […] All strains were grown in Mueller Hinton (MH) broth at 37° C., as indicated.
(§3) Prioritized compounds were tested for their ability to reverse PBP4 mediated antibiotic resistance in another S. aureus background using three isogenic strains that became available during the study (generous gift from Dr. S. Chatterjee; University of Maryland). These strains included: 1) COLnex, which is a methicillin susceptible strain, 2) CRB, a methicillin/ceftobiprole resistant strain of COLnex that overproduces PBP4, and 3) CRBΔpbp4, a methicillin susceptible strain of CRB lacking the pbp4 gene.

The next assay has as its system USA300Δpbp4 pPBP4. In words: microbe, parasite or virus in culture. Conditions: Staphylococcus aureus, read-out: Minimum inhibitory concentration. The assay is classed as cell-based.
In another assay the test system is CRBΔpbp4. In words: MIC testing of antibiotics. Format: cell-based. Conditions: Staphylococcus aureus, read-out: Minimum inhibitory concentration. On the procedure:
as §2, §3

For a further assay, the system named is COLnex. As to the kind of experiment: MIC testing of antibiotics. The assay is classed as cell-based. To be noted: Staphylococcus aureus, read-out: Minimum inhibitory concentration. On the procedure:
as §2, §3

In the next assay the test system is S. aureus strain USA300. As to the kind of experiment: microbe, parasite or virus in culture. Format: cell-based, Staphylococcus aureus. As for the experimental part:
as §2
(§4) Prior to identifying new PBP4 inhibitors, a screening paradigm to identify existing molecules that reverse the antibiotic resistance profile of wild type cells to that of a pbp4 mutant was developed. To define screening conditions three strains were employed: 1) a wild type USA300 MRSA strain, 2) an isogenic pbp4 deletion strain, and 3) a complemented strain harboring a plasmid wildtype pbp4 copy. The antibiotic susceptibility profile of each strain was measured to determine the magnitude with which PBP4 affects resistance to various antibiotics (Table 1).

The subject of another assay is USA300Δpbp4. In words: MIC testing of antibiotics. The assay is classed as cell-based, Staphylococcus aureus. To be noted: for MIC: Staphylococcus aureus, read-out: Minimum inhibitory concentration. As for the experimental part: as §2, §4
In a further assay the test system is MRSA strain AH-2204. As to the kind of experiment: Broth microdilution antibiotic potentiation. The assay is classed as cell-based, Staphylococcus aureus. To be noted: Staphylococcus aureus, MRSA, AH-2204. On the procedure:
as §1

[2] abbreviates: read-out: Cephalothin MIC, no compound (—).
[3] abbreviates: Staphylococcus aureus, USA300, read-out: Minimum inhibitory concentration.
Where [4] appears, read: read-out: Imipenem MIC, no compound (—).
The mark [5] stands for this setting: read-out: Amoxicillin MIC, no compound (—).
Where [6] appears, read: read-out: Piperacillin MIC, no compound (—).
Where [7] appears, read: read-out: Cefotaxime MIC, no compound (—).

Converted amounts (≈) assume the structure as drawn. “And” between values parts separate entries of the source, which are not always exact repeats. Equal entries are not always repeated. Where two headings read alike, the source gives them in different places.

For `CC(=O)OCC1=C(C(=O)O)N2C(=O)[C@@H](NC(=O)Cc3cccs3)[C@H]2SC1` [Cephalothin, cephalothin], the “Cephalothin MIC, no compound (—)” value in assay [1] is 16 µg/mL; in the assay on MRSA strain AH-1263, 32 µg/mL. The MIC came out at 32 µg/mL in assay [1] (setting [2]) and 16 µg/mL in the assay on MRSA strain AH-1263 (setting [2]).

For `CC1(C)S[C@@H]2[C@H](NC(=O)Cc3ccccc3)C(=O)N2[C@H]1C(=O)O` [Penicillin G, penicillin G], the “Penicillin G MIC, no compound (—)” value in the assay on MRSA strain AH-1263 is 16 µg/mL and 8 µg/mL.

As for `C/C(=C\C(=O)OCCCCCCCCC(=O)O)C[C@@H]1OC[C@H](C[C@@H]2O[C@H]2[C@@H](C)[C@H](C)O)[C@@H](O)[C@H]1O` [MUP, mupirocin], the MIC was found to be 0.03 µg/mL (≈ 0.0599 µM) in the assay on CRB; 0.125 µg/mL (≈ 0.25 µM) with USA300Δpbp4 pPBP4; 0.03 µg/mL (≈ 0.0599 µM) with CRBΔpbp4; 0.03 µg/mL (≈ 0.0599 µM) in the assay with COLnex; 0.125 µg/mL (≈ 0.25 µM) in the assay on S. aureus strain USA300 (setting [3]); 0.125 µg/mL (≈ 0.25 µM) in the assay with USA300Δpbp4.

On to `C[C@@H](O)[C@H]1C(=O)N2C(C(=O)O)=C(S[C@@H]3CN[C@H](C(=O)N(C)C)C3)[C@H](C)[C@H]12` [MER, meropenem], for which the MIC in the assay on CRB came out at 64 µg/mL (≈ 167 µM); in the assay on USA300Δpbp4 pPBP4 it was 4 µg/mL (≈ 10.4 µM); in the assay on CRBΔpbp4 it was 1 µg/mL (≈ 2.61 µM); with COLnex, 1 µg/mL (≈ 2.61 µM); in the assay with S. aureus strain USA300 (setting [3]), 4 µg/mL (≈ 10.4 µM); in the assay with USA300Δpbp4 it was 2 µg/mL (≈ 5.22 µM). The molecule further registered a Minimum inhibitory concentration in the assay with S. aureus strain USA300 (USA300) of 4 µg/mL (≈ 10.4 µM).

On to `C[C@@H](O)[C@H]1C(=O)N2C(C(=O)O)=C(SCCN=CN)C[C@H]12` [Imipenem, imipenem], for which the MIC in assay [1] (setting [4]) was determined as 32 µg/mL; in the assay on MRSA strain AH-2204 (setting [4]), 32 µg/mL; with MRSA strain AH-1263 (setting [4]), 16 µg/mL.

Consider `NC[C@H]1O[C@H](O[C@H]2[C@H](O)[C@@H](O[C@H]3O[C@H](CO)[C@@H](O)[C@H](N)[C@H]3O)[C@H](N)C[C@@H]2N)[C@H](N)C[C@@H]1O` [TOB, tobramycin], for which the MIC in the assay on CRB was 0.06 µg/mL (≈ 0.128 µM); in the assay on USA300Δpbp4 pPBP4, 1 µg/mL (≈ 2.14 µM); with CRBΔpbp4 it was 0.06 µg/mL (≈ 0.128 µM); in the assay with COLnex, 0.06 µg/mL (≈ 0.128 µM); in the assay on S. aureus strain USA300 (setting [3]), 1 µg/mL (≈ 2.14 µM); with USA300Δpbp4, 1 µg/mL (≈ 2.14 µM).

As for `CC1(C)S[C@@H]2[C@H](NC(=O)[C@H](N)c3ccc(O)cc3)C(=O)N2[C@H]1C(=O)O` [Amoxicillin, amoxicillin], the MIC in assay [1] (setting [5]) was found to be 8 µg/mL; with MRSA strain AH-2204 (setting [5]) it was 2 µg/mL; with MRSA strain AH-1263 (setting [5]), 4 µg/mL. Besides, in the assay with MRSA strain AH-1263, the “Amoxicillin MIC, no compound (—)” value was 8 µg/mL.

For `CCN1CCN(C(=O)N[C@@H](C(=O)N[C@@H]2C(=O)N3[C@@H]2SC(C)(C)[C@@H]3C(=O)O)c2ccccc2)C(=O)C1=O` [Piperacillin, piperacillin], the MIC in assay [1] (setting [6]) came out at 16 µg/mL; in the assay with MRSA strain AH-2204 (setting [6]), 4 µg/mL; in the assay on MRSA strain AH-1263 (setting [6]), 16 µg/mL.

As for `O=C(O)c1cn(C2CC2)c2cc(N3CCNCC3)c(F)cc2c1=O` [CIP, ciprofloxacin], the MIC in the assay on CRB was found to be 0.5 µg/mL (≈ 1.51 µM); in the assay with CRBΔpbp4 it was 0.25 µg/mL (≈ 0.754 µM); in the assay on COLnex, 0.25 µg/mL (≈ 0.754 µM); with S. aureus strain USA300 (Staphylococcus aureus, USA300; read-out: Minimum inhibitory concentration), 4 µg/mL (≈ 12.1 µM); in the assay with USA300Δpbp4 it was 1 µg/mL (≈ 3.02 µM). Also, the Minimum inhibitory concentration in the assay with S. aureus strain USA300 (USA300) was 4 µg/mL (≈ 12.1 µM); in the assay on USA300Δpbp4 (USA300Δpbp4), 1 µg/mL (≈ 3.02 µM).

For `CCOc1ccc2ccccc2c1C(=O)N[C@@H]1C(=O)N2[C@@H]1SC(C)(C)[C@@H]2C(=O)O` [NAF, nafcillin], the MIC was over 128 µg/mL in the assay on CRB; 8 µg/mL (≈ 19.3 µM) in the assay on USA300Δpbp4 pPBP4; 0.25 µg/mL (≈ 0.603 µM) in the assay on CRBΔpbp4; 0.25 µg/mL (≈ 0.603 µM) in the assay on COLnex; 8 µg/mL (≈ 19.3 µM) in the assay on S. aureus strain USA300 (setting [3]); 4 µg/mL (≈ 9.65 µM) with USA300Δpbp4. Besides, the Minimum inhibitory concentration with S. aureus strain USA300 (USA300) was determined as 8 µg/mL (≈ 19.3 µM).

As for `CO/N=C(\C(=O)N[C@@H]1C(=O)N2C(C(=O)O)=C(COC(C)=O)CS[C@H]12)c1csc(N)n1` [Cefotaxime, cefotaxime], the “Cefotaxime MIC, no compound (—)” value (in [1]; in the assay with MRSA strain AH-1263) was 32 µg/mL in each case. The MIC (in assay [1] (setting [7]); with MRSA strain AH-1263 (setting [7])) was 16 µg/mL each time.

colistin had a Minimum inhibitory concentration in the assay with S. aureus strain USA300 (USA300) of 128 µg/mL.
